The numbers were not newly measured in patent US20230149389A1, “METHODS OF REDUCING MORTALITY IN SUBJECTS SUFFERING FROM AN UNDERLYING DISEASE OR CONDITION BY ADMINISTRATION OF METHYLNALTREXONE” (Bausch Health Ireland Limited, priority 2020, published 2023), which cites them from elsewhere.

For data set [1] the following is noted: cited from earlier work.
The subject of data set [2] is human dermal endothelial and pulmonary cells. The settings on record: at clinically relevant levels; cited from earlier work.
For the next data set, the system named is murine model of sepsis. The settings on record: mouse, in vivo; cited from earlier work.

With `C[C@H]1CN(C[C@H](Cc2ccccc2)C(=O)NCC(=O)O)CC[C@@]1(C)c1cccc(O)c1` [alvimopan], the “incidence rate for MI” value in data set [1] (placebo 0%) is given as 1.30%. The “incidence rate for cardiovascular events” value in data set [1] (placebo 1.12%) was 2.60%.

For the molecule `CN1CC[C@]23c4c5ccc(O)c4O[C@H]2[C@@H](O)C=C[C@H]3[C@H]1C5` [morphine], the “angiogenic activity relative to vascular endothelial growth factor” value in data set [2] is 70%. For the same molecule, the “mortality in murine model of sepsis” value in the data set on murine model of sepsis is “increased mortality”.
